Experimental data published in patent US10342809B2, “Neuroactive 19-alkoxy-17-substituted steroids, prodrugs thereof, and methods of treatment using same” (priority 2012, dated 2019).
Read-outs that look alike come from different tables or passages of the source.

Columns and labels:
[1] = target: T1, rat α1β2γ2L type GABAA receptors expressed in Xenopus laevis oocytes (Rattus norvegicus, UniProt P62813+P63138); experiment: Oocyte electrophysiology: potentiation of GABA-mediated chloride currents and direct gating; format: cell-based; settings: 2 μM GABA, ± SEM, N ≥4; for oocyte electrophysiology 0.1 μM: ratio of currents in presence/absence of 0.1 μM compound; for oocyte electrophysiology 1 μM: ratio of currents in presence/absence of 1 μM compound; for oocyte electrophysiology 10 μM: ratio of currents in presence/absence of 10 μM compound
T1 construct: expressed in transfected cells; host or cells: Xenopus laevis oocytes
Description: The compounds of the present disclosure were evaluated for the ability to potentiate chloride currents mediated by 2 μM GABA at rat α1β2γ2L type GABAA receptors expressed in Xenopus laevis oocytes and the results are shown in Table 2.

Tadpole = Tadpole loss of righting reflex (LRR) and loss of swimming reflex (LSR); format: in vivo; settings: ± SEM
Description: Table 3 discloses the anesthetic effects of the compounds of the present disclosure. In particular, the anesthetic effect of the compounds of the present disclosure on Loss of Righting Reflex (LRR) and Loss of Swimming Reflex (LSR).
Methods used are known in the art (see Jiang, X., et al.). Error limits are calculated as standard error of the mean (N=10 or more animals at each of five or more different concentrations).

[2] = target: T1, rat α1β2γ2L type GABAA receptors expressed in Xenopus laevis oocytes; experiment: Oocyte electrophysiology: potentiation of GABA-mediated chloride currents and direct gating; format: cell-based; settings: direct current gated by 10 μM compound in absence of GABA; ratio of compound only current/2 μM GABA current
[3] = target: picrotoxin binding site on GABAA receptors; experiment: [35S]-TBPS displacement (inhibition of [35S]-TBPS binding); settings: non-competitive displacement; duplicate experiments in triplicate; ± SEM
Description: The IC50 values for non-competitive displacers of [^35S]-TBPS from the picrotoxin binding site on GABAA receptors are reported in Table 1.

[4] = loss of righting reflex, read-out: Tadpole LRR EC50
[5] = loss of swimming reflex, read-out: Tadpole LSR EC50

T1 sequence (P62813 28-455): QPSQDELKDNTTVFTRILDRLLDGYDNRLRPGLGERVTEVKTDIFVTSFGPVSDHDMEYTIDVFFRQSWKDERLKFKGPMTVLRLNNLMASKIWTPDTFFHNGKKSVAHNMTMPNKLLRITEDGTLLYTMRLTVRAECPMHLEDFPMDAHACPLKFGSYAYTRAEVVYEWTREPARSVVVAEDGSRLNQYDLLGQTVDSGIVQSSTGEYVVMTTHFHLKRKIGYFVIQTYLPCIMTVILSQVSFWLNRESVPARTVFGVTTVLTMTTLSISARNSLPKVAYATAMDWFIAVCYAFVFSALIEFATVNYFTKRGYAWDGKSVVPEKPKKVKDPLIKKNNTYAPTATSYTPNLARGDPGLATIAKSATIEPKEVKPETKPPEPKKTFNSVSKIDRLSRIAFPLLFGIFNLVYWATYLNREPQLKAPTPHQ
T1 sequence (P63138 26-474): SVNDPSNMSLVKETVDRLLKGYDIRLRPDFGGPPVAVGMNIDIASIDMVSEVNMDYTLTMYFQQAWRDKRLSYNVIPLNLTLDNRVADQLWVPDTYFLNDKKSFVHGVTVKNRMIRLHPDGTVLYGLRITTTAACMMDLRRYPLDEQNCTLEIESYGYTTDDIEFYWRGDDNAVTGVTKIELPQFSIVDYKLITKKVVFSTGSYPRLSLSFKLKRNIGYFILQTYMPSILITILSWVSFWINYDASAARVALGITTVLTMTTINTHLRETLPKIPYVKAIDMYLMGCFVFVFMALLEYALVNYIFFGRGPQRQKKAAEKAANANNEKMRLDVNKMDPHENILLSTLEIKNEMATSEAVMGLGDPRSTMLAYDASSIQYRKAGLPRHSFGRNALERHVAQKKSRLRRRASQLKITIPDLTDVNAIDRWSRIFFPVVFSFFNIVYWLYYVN
T1 sequence (P18508 with tags, fused parts or gaps INS375LLRMFSFK partner): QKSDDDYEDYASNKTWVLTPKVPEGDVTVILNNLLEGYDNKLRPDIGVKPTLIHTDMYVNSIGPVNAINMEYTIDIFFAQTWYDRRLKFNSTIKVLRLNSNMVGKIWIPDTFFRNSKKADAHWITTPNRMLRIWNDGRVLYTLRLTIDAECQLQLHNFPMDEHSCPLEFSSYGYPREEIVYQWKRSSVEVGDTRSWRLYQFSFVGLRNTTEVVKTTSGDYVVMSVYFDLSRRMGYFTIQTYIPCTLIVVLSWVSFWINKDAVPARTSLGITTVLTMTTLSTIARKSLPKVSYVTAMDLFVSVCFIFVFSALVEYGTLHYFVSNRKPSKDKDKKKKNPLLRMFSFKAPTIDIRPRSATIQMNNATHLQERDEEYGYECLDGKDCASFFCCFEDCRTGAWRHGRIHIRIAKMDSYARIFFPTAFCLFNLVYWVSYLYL

Structure (SMILES): COC[C@]12CCC(O)CC1CC[C@@H]1[C@@H]2CC[C@]2(C)C(=O)CC[C@@H]12 (stereo in doubt) [Compound 30, (3α,5β)-3-Hydroxy-19-methoxyandrostan-17-one]
- oocyte electrophysiology 0.1 μM [1]: 0.90 ± 0.02
- oocyte electrophysiology 1 μM [1]: 0.88 ± 0.01
- oocyte electrophysiology 10 μM [1]: 0.84 ± 0.02
- EC50 (Tadpole; [4]): > 10 µM

Structure (SMILES): COC[C@]12CCC(=O)C[C@@H]1CC[C@H]1[C@@H]3CC[C@H](OC)[C@@]3(C)CC[C@@H]12 [Compound 7, (5α,17β)-17,19-Dimethoxyandrostan-3-one]
- oocyte electrophysiology 0.1 μM [1]: 1.00 ± 0
- oocyte electrophysiology 1 μM [1]: 0.85 ± 0.01
- oocyte electrophysiology 10 μM [1]: 1.07 ± 0.02
- EC50 (Tadpole; [4]): 1.71 ± 0.25 µM
- EC50 (Tadpole; [5]): 5.48 ± 0.12 µM
- melting point: 91 to 93 °C
- oocyte electrophysiology (gating) 10 μM [2]: 0.04 ± 0.03

Structure (SMILES): COC[C@]12CC[C@@H](O)C[C@@H]1CC[C@H]1[C@@H]3CC[C@H](OC)[C@@]3(C)CC[C@@H]12 [Compound 8, (5α,17β)-17,19-Dimethoxyandrostan-3-ol]
- oocyte electrophysiology 0.1 μM [1]: 1.65 ± 0.08
- oocyte electrophysiology 1 μM [1]: 7.63 ± 0.77
- oocyte electrophysiology 10 μM [1]: 20.9 ± 2.73
- EC50 (Tadpole; [4]): 332 ± 43 µM
- EC50 (Tadpole; [5]): 1.07 ± 0.01 µM
- oocyte electrophysiology (gating) 10 μM [2]: 0.22 ± 0.01

Structure (SMILES): COC[C@]12CC[C@@H](O)C[C@@H]1CC[C@@H]1[C@@H]2CC[C@]2(C)C(=O)CC[C@@H]12 [Compound 11, (3α,5α)-3-Hydroxy-19-methoxyandrostan-17-one]
- IC50 [3]: 4.3 µM
- oocyte electrophysiology 0.1 μM [1]: 0.71 ± 0.02
- oocyte electrophysiology 1 μM [1]: 0.76 ± 0.07
- oocyte electrophysiology 10 μM [1]: 2.17 ± 0.12
- EC50 (Tadpole; [4]): 7.95 ± 3.29 µM
- EC50 (Tadpole; [5]): 17.3 ± 0.2 µM
- oocyte electrophysiology (gating) 10 μM [2]: 0 ± 0.07

Structure (SMILES): COC[C@]12CC[C@@H](O)C[C@@H]1CC[C@@H]1[C@@H]2CC[C@@]2(C)[C@H]1CC[C@@]21CO1 [Compound 12, (3α,5α,17β)-19-Methoxyspiro[androstane-17,2′-oxiran]-3-ol]
- oocyte electrophysiology 0.1 μM [1]: 1.24 ± 0.05
- oocyte electrophysiology 1 μM [1]: 7.40 ± 1.43
- oocyte electrophysiology 10 μM [1]: 18.7 ± 6.19
- EC50 (Tadpole; [4]): 1.73 ± 0.05 µM
- EC50 (Tadpole; [5]): 3.54 ± 2.33 µM
- oocyte electrophysiology (gating) 10 μM [2]: 0.14 ± 0.04

Structure (SMILES): COC[C@]12CC[C@@H](O)C[C@@H]1CC[C@@H]1[C@@H]2CC[C@]2(C)C(C#N)=CC[C@@H]12 [Compound 15, (3α,5α)-3-Hydroxy-19-methoxyandrost-16-ene-17-carbonitrile]
- oocyte electrophysiology 0.1 μM [1]: 1.27 ± 0.13
- oocyte electrophysiology 1 μM [1]: 5.34 ± 0.86
- oocyte electrophysiology 10 μM [1]: 25.6 ± 3.23
- EC50 (Tadpole; [4]): 1.22 ± 0.94 µM
- EC50 (Tadpole; [5]): 2.71 µM
- oocyte electrophysiology (gating) 10 μM [2]: 0.10 ± 0.09

Structure (SMILES): COC[C@]12CC[C@@H](O)C[C@@H]1CC[C@H]1[C@@H]3CC[C@H](C#N)[C@@]3(C)CC[C@@H]12 [Compound 16, (3α,5α,17β)-3-Hydroxy-19-methoxyandrostane-17-carbonitrile]
- oocyte electrophysiology 0.1 μM [1]: 1.52 ± 0.02
- oocyte electrophysiology 1 μM [1]: 9.79 ± 0.53
- oocyte electrophysiology 10 μM [1]: 25.7 ± 2.11
- EC50 (Tadpole; [4]): 0.36 ± 0.04 µM
- EC50 (Tadpole; [5]): 0.99 ± 0.17 µM
- oocyte electrophysiology (gating) 10 μM [2]: 0.25 ± 0.11

Structure (SMILES): COC[C@]12CC[C@@H](O)C[C@@H]1CC[C@H]1[C@@H]3CC[C@H](C(C)=O)[C@@]3(C)CC[C@@H]12 [Compound 17, (3α,5α)-3-Hydroxy-19-methoxypregnan-20-one]
- oocyte electrophysiology 0.1 μM [1]: 2.15 ± 0.19
- oocyte electrophysiology 1 μM [1]: 12.8 ± 1.74
- oocyte electrophysiology 10 μM [1]: 33.8 ± 5.44
- EC50 (Tadpole; [4]): 0.36 ± 0.04 µM
- EC50 (Tadpole; [5]): 1.71 ± 0.03 µM
- oocyte electrophysiology (gating) 10 μM [2]: 0.23 ± 0.07

Structure (SMILES): COC[C@]12CC[C@@H](O)C[C@@H]1CC[C@H]1[C@@H]3CC[C@H](C(=O)CO)[C@@]3(C)CC[C@@H]12 [Compound 20, (3α,5α)-3,21-Dihydroxy-19-methoxypregnan-20-one]
- oocyte electrophysiology 0.1 μM [1]: 0.98 ± 0.01
- oocyte electrophysiology 1 μM [1]: 2.76 ± 0.27
- oocyte electrophysiology 10 μM [1]: 19.0 ± 2.31
- EC50 (Tadpole; [4]): 3.15 ± 0.5 µM
- EC50 (Tadpole; [5]): 5.48 ± 0.12 µM
- oocyte electrophysiology (gating) 10 μM [2]: 0.09 ± 0.05

Structure (SMILES): COC[C@]12CCC(=O)C=C1CC[C@@H]1[C@@H]2CC[C@]2(C)[C@@H](OC)CC[C@@H]12 [Compound 24, (17β)-17,19-Dimethoxyandrost-4-en-3-one]
- oocyte electrophysiology 0.1 μM [1]: 0.88 ± 0.08
- oocyte electrophysiology 1 μM [1]: 0.63 ± 0.06
- oocyte electrophysiology 10 μM [1]: 1.06 ± 0.17
- oocyte electrophysiology (gating) 10 μM [2]: 0.11 ± 0.17

Structure (SMILES): COC[C@]12CC[C@@H](O)CC1=CC[C@@H]1[C@@H]2CC[C@]2(C)[C@@H](OC)CC[C@@H]12 [Compound 25, (3α,17β)-17, 19-Dimethoxyandrost-5-en-3-ol]
- oocyte electrophysiology 0.1 μM [1]: 0.94 ± 0.07
- oocyte electrophysiology 1 μM [1]: 1.97 ± 0.08
- oocyte electrophysiology 10 μM [1]: 15.7 ± 0.90
- EC50 (Tadpole; [4]): 3.38 ± 0.38 µM
- EC50 (Tadpole; [5]): 10.5 µM
- oocyte electrophysiology (gating) 10 μM [2]: 0.08 ± 0.07

Structure (SMILES): COC[C@]12CC[C@H](O)CC1=CC[C@@H]1[C@@H]2CC[C@]2(C)[C@@H](OC)CC[C@@H]12 [Compound 26, (3β,17β)-17, 19-Dimethoxyandrost-5-en-3-ol]
- oocyte electrophysiology 0.1 μM [1]: 0.83 ± 0.03
- oocyte electrophysiology 1 μM [1]: 0.76 ± 0.02
- oocyte electrophysiology 10 μM [1]: 0.78 ± 0.02
- oocyte electrophysiology (gating) 10 μM [2]: 0.02 ± 0.02

Structure (SMILES): COC[C@]12CC[C@@H](O)C[C@@H]1CC[C@H]1[C@@H]3CC[C@H]([N+](=O)[O-])[C@@]3(C)CC[C@@H]12 [Compound 29, (3α,5α,17β)-19-methoxy-17-nitroandrostan-3-ol]
- oocyte electrophysiology 0.1 μM [1]: 2.07 ± 0.09
- oocyte electrophysiology 1 μM [1]: 15.7 ± 1.45
- oocyte electrophysiology 10 μM [1]: 26.6 ± 4.34
- EC50 (Tadpole; [4]): 0.16 ± 0.01 µM
- EC50 (Tadpole; [5]): 0.55 ± 0.01 µM
- oocyte electrophysiology (gating) 10 μM [2]: 0.11 ± 0.01

Structure (SMILES): COC[C@]12CC[C@H](O)C[C@@H]1CC[C@H]1[C@@H]3CC[C@H](OC)[C@@]3(C)CC[C@@H]12 [Compound 31, (3β,5α,17β)-17, 19-Dimethoxyandrostan-3-ol]
- oocyte electrophysiology 0.1 μM [1]: 0.91 ± 0.02
- oocyte electrophysiology 1 μM [1]: 0.97 ± 0.05
- oocyte electrophysiology 10 μM [1]: 1.10 ± 0.05
- EC50 (Tadpole; [4]): 7.04 ± 1.98 µM
- EC50 (Tadpole; [5]): 16.8 ± 5.9 µM
- oocyte electrophysiology (gating) 10 μM [2]: 0.02 ± 0
